Where two headings read alike, the source gives them in different places.
Key:
[1] = tested on: AsPC-1 pancreatic cancer cell line
Experimental: (§10) Following 4 weekly cycles of cytotoxic treatment and regrowth (see text), the cytotoxic potency of GP-2250 (FIG. 8A) and of gemcitabine (FIG. 8B) was tested with the BrdU and MTT assay respectively in the AsPC-1 pancreatic cancer cell line (light columns). Controls corresponded to cells cultured for 4 weeks without drug treatment (dark columns).
(§11) Secondary resistance to 2250 was tested to imitate the repetitive bolus administration of the drug over a period of up to 8 weeks. Gemcitabine was used as comparator drug. A potential secondary resistance was expected to manifest itself in a decreased ability of either drug to impair cell viability. The study was performed with 3 pancreatic tumor cell lines, AsPC-1, PancTul and Bo80, the latter being a primary cell line derived from a pancreatic cancer patient. The cells were treated once a week for 24 hours with 2250 or gemcitabine at a dose which destroyed 80-90% of the cells. Subsequently, the media were exchanged and the cells were allowed to regrow in the absence of drug for 6 days.
(§12) This weekly treatment cycle of cell killing and regrowth was repeated for both drugs for 4 weeks, 6 weeks and 8 weeks. Untreated cultures of 4, 6 and 8 weeks were used as controls. Cell viability was tested with the BrdU assay or the MTT assay at 2 hour, 24 hour, and 6 days in every treatment cycle for 4, 6 and 8 weeks.

[2] = tested on: Bo80 pancreatic primary cancer cell line
Experimental: (§13) Controls corresponded to cells cultured for 8 weeks without drug treatment (dark columns).
as §11, §12

[3] = tested on: PancTul pancreatic cancer cell line; experiment: test of secondary resistance, PancTul; format: cell-based; conditions: 6 weekly treatment cycles, BrdU assay
Excerpt: FIG. 9: Test of secondary resistance.
Gemcitabine was used as comparator drug.

PancTul cell line [4] = experiment: cell viability MTT test, PancTul; format: cell-based
Experimental: (§1) FIG. 3: Decrease of ATP in PancTul cell line: Effect of treatment with the indicated concentrations of GP-2250 on the amount of ATP (dark column) in comparison to the cell viability (light column) after a) 3 h, b) 6 h and c) 24 h incubation at 37° C. The strong decrease of ATP reflects the impairment of the energy metabolism by GP-2250. The decrease of ATP precedes the decrease in cell viability and is therefore not caused by the impairment of cell viability. ATP was measured with a luminescent detection kit (Abcam ab113849), cell viability with the MTT test (Sigma M5655). Data are given as % change versus untreated control (NC), presented as mean+/−S.D. Significance levels in comparison to NC. * p<0.05, ** p<0.01, ***p<0.001.
as §1, with “The” for “FIG. 3: Decrease of ATP in PancTul cell line: Effect of treatment with the indicated concentrations of GP-2250 on the amount of ATP (dark column) in comparison to the cell viability (light column) after a) 3 h, b) 6 h and c) 24 h incubation at 37° C. The”

Bax = experiment: Western blot of Bax expression in PancTul cells; format: cell-based; conditions: 200 μM, 0 h, 6 h, 12 h and 24 h, α-tubulin as control
Experimental: (§2) FIG. 5: Regulation of oncoproteins Bax and Bcl-2 expression: Effect of treatment with 200 μM GP-2250 for 0 h, 6 h, 12 h and 24 h on the expression of the oncoproteins a) Bax and b) Bcl-2 was tested in PancTul cells by Western blots with α-tubulin as control. The expression of the pro-apoptotic protein Bax was increased whereas the expression of the anti-apoptotic Bcl-2 was decreased over time of incubation with GP-2250.
(§3) Apoptotic pathways are triggered by a decrease of ATP or an increase of ROS. They result in a shift of the equilibrium between the pro-apoptotic (death) protein Bax and the anti-apoptotic (survival) protein Bcl-2. The mitochondria are destabilized and the apoptotic caspase cascade finalizes the apoptotic cell suicide. GP-2250 (200 μM) increased the expression of Bax and decrease the expression of BCl-2 with increasing incubation times as shown in the Western blots (FIG. 5). […] In addition, the concentration of GP-2250 which is sufficient to change the Bax/Bcl-2 ratio (200 uM) corresponds to that for partial GAPDH inhibition (250 uM) (FIG. 1). This finding links GAPDH inhibition to the induction of apoptosis.
(§4) The expression of the pro-apoptotic protein Bax was increased whereas the expression of the anti-apoptotic Bcl-2 was decreased over time of incubation with GP-2250.

[5] = tested on: Chemotherapy-resistant stem cells from advanced Stage 3 and 4 pancreatic cancer human patients; experiment: chemotherapy-resistant stem cells from pancreatic cancer patients; format: cell-based; conditions: several concentrations
[6] = tested on: primary cell line derived from human pancreatic cancer (Bo80); experiment: cell viability MTT assay, Bo80 primary pancreatic cancer cells; format: cell-based; conditions: 24 h at 37° C.
Experimental: FIG. 6: Synergy between GP-2250 and Gemcitabine: Cell viability was tested in a primary cell line derived from human pancreatic cancer (Bo80). […] When combined, a striking synergy was observed. The number of viable cells was reduced by 70-75%. Cell viability was tested colorimetically using the MTT assay. […] Reduction of chemotherapy drug-related toxicity can be achieved in vitro using the combinations with GP-2250 while maintaining high efficacy. The combination of GP-2250 with gemcitabine was therefore tested in mouse models of patient-derived xenografts to assess the therapeutic potential of this drug combination in vivo (see FIGS. 12-15; FIG. 18). […] When combined, a striking synergy was observed. The number of viable cells was reduced by 70-75%. Cell viability was tested colorimetically using the MTT assay.

[7] = tested on: PancTul pancreatic cancer cell line; experiment: fluorescent ROS detection assay, PancTul; format: cell-based
Experimental: (§5) FIG. 2: Formation of ROS: The effect of treatment with the indicated concentrations of GP-2250 on the formation of ROS was tested in two pancreatic cancer cell lines a) PancTul and b) BxPC3, using a fluorescent ROS detection assay (ROS/Superoxide Detection Assay Kit, Abcam (ab139476)) following incubation with GP-2250 for 90 min at 37° C. Negative controls (NC+NAC) contained the ROS inhibitor which is part of the Assay Kit plus N-acetylcysteine (NAC; 5 mM). Untreated control (U). Data are presented as mean+/−S.D. Significance levels calculated in comparison to untreated controls (U). * p<0.05, ** p<0.01, *** p<0.001.
(§6) The effects of treatment with various concentrations of GP-2250 on the formation of ROS was tested in two pancreatic cancer cell lines a) PancTul and b) BxPC3 as shown in FIG. 2. […] The BxPC3 cell line was more sensitive to forming ROS than Panc Tul. The rather high concentrations of GP-2250 which are required for the formation of ROS (equal or higher than 500 uM) are most likely due to the short incubation time of 90 minutes in this cellular assay. A higher potency of GP-2250 would be expected at longer incubation times.
(§7) Untreated control (U). Data are presented as mean+/−S.D. Significance levels calculated in comparison to untreated controls (U). * p<0.05, ** p<0.01, *** p<0.001.

BxPC3 cell line [8] = experiment: cell viability MTT test, BxPC3; format: cell-based
Experimental: as §1, with “4:” for “3:”, “BxPC3” for “PancTul”
as §1, with “The” for “FIG. 3: Decrease of ATP in PancTul cell line: Effect of treatment with the indicated concentrations of GP-2250 on the amount of ATP (dark column) in comparison to the cell viability (light column) after a) 3 h, b) 6 h and c) 24 h incubation at 37° C. The”

[9] = tested on: BxPC3 pancreatic cancer cell line; experiment: fluorescent ROS detection assay, BxPC3; format: cell-based
Experimental: as §5, §6, §7

BxPC3 cell line [10] = experiment: ATP luminescent detection kit, BxPC3; format: cell-based
Experimental: as §1, with “4:” for “3:”, “BxPC3” for “PancTul”
(§8) The level of ATP in a tumor cell is taken as a measure of the impact of GP-2250 on its energy metabolism. […] The decrease of ATP is already apparent after 3 h with PancTul and at 6 h with the less sensitive BxPC3 at 250 uM. It is this concentration which causes partial inhibition of GAPD (FIG. 1) and thereby links GAPD inhibition to the decrease of ATP, which in itself is a sufficient signal for the induction of apoptosis. […]
(§9) The strong decrease of ATP reflects the impairment of the energy metabolism by GP-2250. […] ATP was measured with a luminescent detection kit (Abcam ab113849), cell viability with the MTT test (Sigma M5655). […]

[11] = tested on: neuroendocrine cell line QGP-1
Experimental: (§14) Neuroendocrine tumors were tested in vitro using the neuroendocrine cell line QGP-1 and in vivo using mouse models with a QGP-1 cell xenograft and a Bo99 patient-derived pancreatic cancer tissue graft.

[12] = molecular target: recombinant GAPDH (rGAPDH) (Homo sapiens, UniProt P04406); experiment: Glyceraldehyde-3-phosphate Dehydrogenase Activity Assay Kit with recombinant GAPDH; format: biochemical
recombinant GAPDH (rGAPDH), sequence (P04406 whole entry): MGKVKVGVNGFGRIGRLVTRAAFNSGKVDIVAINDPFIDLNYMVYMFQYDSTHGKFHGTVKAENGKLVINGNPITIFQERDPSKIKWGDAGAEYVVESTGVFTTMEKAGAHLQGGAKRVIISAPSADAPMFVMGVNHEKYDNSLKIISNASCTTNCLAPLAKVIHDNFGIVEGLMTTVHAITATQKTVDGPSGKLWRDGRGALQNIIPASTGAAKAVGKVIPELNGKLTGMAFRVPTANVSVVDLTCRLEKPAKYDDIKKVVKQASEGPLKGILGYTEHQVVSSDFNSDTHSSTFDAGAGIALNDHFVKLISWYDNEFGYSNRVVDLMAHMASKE
Experimental: FIG. 1: Inhibition of GAPDH enzyme activity: Effect of treatment with GP-2250 (100 uM and 250 uM) on the activity of recombinant GAPDH (rGAPDH) was tested with the Glyceraldehyde-3-phosphate Dehydrogenase Activity Assay Kit (Abcam ab204732) following incubation for up to 60 min at 37° C. The rGAPDH activity is inhibited dose- and time-dependently by 100 uM and 250 uM GP-2250 up to 40% compared to the untreated control. […] The GP-2250 curves are the measured data, not normalized to controls. Data are presented as mean+/−S.D.
The incubation time may be critical as it is a cell-free assay. Specific doses required for a half-maximal or full inhibition of GAPDH are tested in vitro and in vivo in rodents. These in vitro and in vivo data provide a target-related measure of the dose required to inhibit the GAPDH in tissue, e.g., cancer tissue, to various degrees, which is a more direct measure of the impact of the compounds of the present disclosure in contrast to cellular assays such as induction of apoptosis or ROS production.
GAPDH is the rate limiting glycolytic enzyme in cells operating under conditions of aerobic glycolysis, such as tumor cells. Partial inhibition is therefore expected to impair the energy metabolism of tumor cells. This is in contrast to normal cells. […] The GP-2250 curves are the measured data, not normalized to controls. […]

PancTul cell line [13] = experiment: ATP luminescent detection kit, PancTul; format: cell-based
Experimental: as §1, §8, §9

Bcl-2 = experiment: Western blot of Bcl-2 expression in PancTul cells; format: cell-based; conditions: 200 μM, 0 h, 6 h, 12 h and 24 h, α-tubulin as control
Experimental: as §2, §3, §4

[14] = tested on: Bo80 pancreatic primary cancer cell line; experiment: test of secondary resistance, Bo80; conditions: Bo80, 8 weekly treatment cycles, BrdU assay, vs untreated 8-week cultures
Experimental: as §13, §11, §12

[15] = tested on: neuroendocrine cell line QGP-1; experiment: QGP-1 tumor cell viability in vitro
Experimental: as §14

[16] = tested on: AsPC-1 pancreatic cancer cell line; experiment: test of secondary resistance, AsPC-1; conditions: AsPC-1, 4 weekly treatment cycles, MTT assay, vs untreated 4-week cultures
Experimental: as §10, §11, §12

GAPDH = GAPDH (Homo sapiens, UniProt P04406); experiment: interactions with GAPDH (covalent labeling); format: biochemical
GAPDH, sequence (P04406 whole entry): as above
Experimental: Various oxathiazine-like compounds of the present disclosure are synthesized and are assayed for interactions with GAPDH. Isethionic acid amide and methylene glycol were identified as hydrolytic products. A reactive transient reactive intermediate is isethionic acid hydroxymethylamide. […] The covalently labeled enzyme is purified and reactive intermediates are identified using various analytical methods including mass spectrometry of the labeled peptide is elucidated.

O=S1(=O)CCOCN1 [GP-2250, Tetrahydro1,4,5-oxathiazin-4-dioxide]
cytotoxic potency after repeated treatment (secondary resistance) [1]: remained unchanged
cytotoxic potency after repeated treatment (secondary resistance) [2]: remained unchanged
cytotoxic potency after repeated treatment (secondary resistance) [3]: remained unchanged
impairment of cell viability (MTT) relative to ATP decrease (PancTul cell line [4]): required higher concentrations than those required to decrease ATP
expression of Bax (Bax): increased
effect on chemotherapy-resistant stem cells [5]: some effect at higher concentrations
cell viability, drug alone ([6]; GP-2250 200 uM): inactive per se
increase of ROS ([7]; 90 min at 37° C.): concentration dependent
concentrations required for the formation of ROS ([7]; incubation time of 90 minutes): ≥ 500 µM
impairment of cell viability (MTT) relative to ATP decrease (BxPC3 cell line [8]): required higher concentrations than those required to decrease ATP
increase of ROS ([9]; BxPC3, 90 min at 37° C.): concentration dependent
concentrations required for the formation of ROS ([9]; BxPC3, incubation time of 90 minutes): ≥ 500 µM
incubation time at which decrease of ATP is apparent (BxPC3 cell line [10]; BxPC3, 250 uM): 6 h
ATP amount (BxPC3 cell line [10]; BxPC3, 3 h, 6 h, 24 h at 37° C.): decreases depending on the concentration of GP-2250 and the incubation time
cytotoxic effect in QGP-1 cells, monotherapy [11]: concentration-dependent cytotoxic effect
inhibition of rGAPDH activity ([12]; 100 uM and 250 uM GP-2250, incubation up to 60 min at 37° C., compared to untreated control, dose- and time-dependent): up to 40%
inhibition of recombinant GAPDH ([12]; cell-free assay): directly inhibited
incubation time at which decrease of ATP is apparent (PancTul cell line [13]; 250 uM): 3 h
ATP amount (PancTul cell line [13]; 3 h, 6 h, 24 h at 37° C.): decreases depending on the concentration of GP-2250 and the incubation time
expression of Bcl-2 (Bcl-2): decreased

Nc1ccn([C@@H]2O[C@H](CO)[C@@H](O)C2(F)F)c(=O)n1 [gemcitabine]
cytotoxic potency after repeated treatment (secondary resistance) [14]: reduced cytotoxic potency
effect on chemotherapy-resistant stem cells [5]: minimal effect at all tested concentrations
cytotoxic effect in QGP-1 cells, monotherapy [15]: concentration-dependent cytotoxic effect
cytotoxic potency after repeated treatment (secondary resistance) [16]: reduced cytotoxic potency
cell viability, drug alone ([6]; Gemcitabine 100 uM or 1000 uM): inactive per se

O=S(=O)(CCO)NCO [isethionic acid hydroxymethylamide]
interaction with the reactive cysteine-SH in the active center of GAPDH (GAPDH): inactivates the enzyme
